From patent US6576271B2, “Method for inhibiting inflammation using bioflavonoids” (Board of Trustees operating Michigan State University, priority 1998, dated 2003)
Like-named read-outs stand apart in the source and are kept apart here.

Tests used:
PGHS-1 (COX-1) = target: T1, PGHS-1 (COX-1) (Ovis aries, UniProt P05979); test: COX-1 inhibition by flavonoids and isoflavonoids, O2 uptake (Example 5); format: biochemical; conditions: for PGHS-1 (COX-1) inhibition: at 1000 μM concentrations; for COX-1 inhibitory activity: FIG. 9, 200 μm concentrations; for COX-1 inhibitory activity among isoflavonoids: COX-1/COX-2 stated together
T1 construct: purchased Oxford Biomedical Research (Oxford, Mich., USA)
T1 sequence (P05979 25-600): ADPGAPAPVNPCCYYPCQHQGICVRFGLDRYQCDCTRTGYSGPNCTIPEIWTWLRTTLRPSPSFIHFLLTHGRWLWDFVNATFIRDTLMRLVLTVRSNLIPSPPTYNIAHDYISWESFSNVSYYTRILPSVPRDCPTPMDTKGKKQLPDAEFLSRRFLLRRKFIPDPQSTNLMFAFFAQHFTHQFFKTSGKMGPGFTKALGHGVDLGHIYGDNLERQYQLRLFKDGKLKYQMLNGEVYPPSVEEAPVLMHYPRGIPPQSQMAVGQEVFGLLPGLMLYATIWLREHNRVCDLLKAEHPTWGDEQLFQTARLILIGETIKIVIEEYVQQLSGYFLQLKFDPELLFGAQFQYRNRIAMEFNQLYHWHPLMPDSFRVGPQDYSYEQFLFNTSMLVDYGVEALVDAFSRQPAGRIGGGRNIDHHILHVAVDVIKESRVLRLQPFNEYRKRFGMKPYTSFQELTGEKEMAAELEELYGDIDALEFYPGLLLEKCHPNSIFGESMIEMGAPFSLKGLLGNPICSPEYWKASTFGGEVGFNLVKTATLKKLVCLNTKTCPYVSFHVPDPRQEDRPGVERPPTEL
From the text: (§1) This is an antiinflammatory assay for cyclooxygenase inhibition activity of flavonoids and isoflavonoids. Arachidonic acid and microsomal suspensions of PGHS-1 (COX-1) and COX-2 (PGHS-2) were purchased from Oxford Biomedical Research (Oxford, Mich., USA). Genistein, genistin, naringenin, quercetin, 5,8,4′-trihydroxy-6,7-dimethoxyflavone, kaempferol-3-rutinoside and 3′-methoxy kaempferol 3-rutinoside were purified from BALATON tart cherry by HPLC and were identified by ^1H- and ^13C NMR spectral data. Daidzein and formononetin were purchased from Research Plus, Inc. (Bayonne, N.J., USA). […] Luteolin was purchased from Adams Chemical Co. (Round Lake, Ill., USA).
For measuring the COX activity, flavonoids or isoflavonoids were dissolved in DMSO to yield 40 mM stock solution and was further diluted to the desired concentration according to the COX-1/COX-2 inhibitory activity of each compound assayed.
Anti-inflammatory assay: COX activities were measured using microsomal suspensions of PGHS-1 and PGHS-2. Microsomal membranes (5 mg protein/mL in 0.1 M Tris HCl, pH 7.4) were prepared and assayed on the same day. COX-1 and COX-2 assay was performed at 37° C. controlled by a circulation bath (Model-1166, VWR Scientific Products, Chicago, Ill.) by monitoring the rate of O2 uptake using a 5357 Oxygen electrode (INSTECH Laboratory, Plymouth Meeting, Pa.) (Meade, E. A., et al., J. Biol. Chem. 268 6610-6614 (1993)).
Each assay mixture contained 600 μL of 0.1 M Tris-HCl, pH 8.0, 1 mM phenol, 17 μg hemoglobin and 10 μM arachidonate and were mixed in a microchamber (INSTECH Laboratory, Plymouth Meeting, Pa., USA). […] Reactions were initiated by adding […] of microsomal protein (5 μL). Instantaneous inhibition was determined by measuring the cyclooxygenase activity initiated by adding microsomal suspensions of PGHS-1 or PGHS-2 in the assay mixtures containing 10 μM arachidonate and various concentrations of test compounds. […] The kinetics of the enzyme activity was monitored by Biological Oxygen Monitor (YSI model 5300, Yellow Springs Instrument CO., Inc., Yellow Springs, Ohio) and collected in Quicklog Data Acquisition and Control computer software (Strawberry Tree Inc., Sunnyvale, Calif., USA).
The COX-1/COX-2 activity of BALATON cherry bioflavonoids was determined by monitoring the O2 uptake. Reactions were initiated by adding PGHS enzyme preparation. One unit of cyclooxygenase represents oxygenation of 1 nmol of arachidonate/min under the standard assay condition by the COX enzyme. This assay was a modification of the assay reported by DeWitt et al. (Dewitt D. L., et al., J. Biol. Chem. 265 5192-5198 (1990)). […] This methodology can also be used for COX-2 assay as well using COX-2 enzyme. […] COX-1 inhibitory activities of flavonoids, kaempferol, quercetin, luteolin, quercetin 3-rhamnoside, 5,8,4′-trihydroxy-6,7-dimethoxyflavone were compared. Kaempferol 3-rutinoside, 3′-methoxy kaempferol 3-rutinoside and naringenin (FIG. 9), and five isoflavonoids, genistein, genistin, daidzein, formononetin and biochanin A (FIG. 8).
COX-1/COX-2 inhibitory activities of each compound at different concentrations was calculated by comparing the tangent of O2 uptake curves of test compounds with that of blank control. Each assay was repeated 3 times and the IC50 values (50 inhibitory concentrations) were calculated by linear regression analysis.

PGHS-1 enzyme = target: T2, PGHS-1 enzyme (Ovis aries, UniProt P05979); test: Cyclooxygenase activity of PGHS-1, initial rate of O2 uptake (Example 4); format: biochemical, ram
T2 construct: a microsomal fraction of ram seminal vesicles containing PGHS-1 enzyme; tissue Oxford Biomedical Research (Oxford, Mich.); host or cells: ram seminal vesicles (microsomal fraction)
T2 sequence (P05979 25-600): T1 sequence (P05979 25-600)

[1] = Tsuda et al. 1994; cited from earlier work
cyclooxygenase = conditions: cited from earlier work; for COX inhibition: literature reports
COX-2 (PGHS-2) = target: T3, COX-2 (PGHS-2) (Homo sapiens, UniProt P35354); test: COX-2 inhibition by flavonoids and isoflavonoids, O2 uptake (Example 5); format: biochemical; conditions: COX-1/COX-2 stated together
T3 construct: purchased Oxford Biomedical Research (Oxford, Mich., USA)
T3 sequence (P35354 18-604): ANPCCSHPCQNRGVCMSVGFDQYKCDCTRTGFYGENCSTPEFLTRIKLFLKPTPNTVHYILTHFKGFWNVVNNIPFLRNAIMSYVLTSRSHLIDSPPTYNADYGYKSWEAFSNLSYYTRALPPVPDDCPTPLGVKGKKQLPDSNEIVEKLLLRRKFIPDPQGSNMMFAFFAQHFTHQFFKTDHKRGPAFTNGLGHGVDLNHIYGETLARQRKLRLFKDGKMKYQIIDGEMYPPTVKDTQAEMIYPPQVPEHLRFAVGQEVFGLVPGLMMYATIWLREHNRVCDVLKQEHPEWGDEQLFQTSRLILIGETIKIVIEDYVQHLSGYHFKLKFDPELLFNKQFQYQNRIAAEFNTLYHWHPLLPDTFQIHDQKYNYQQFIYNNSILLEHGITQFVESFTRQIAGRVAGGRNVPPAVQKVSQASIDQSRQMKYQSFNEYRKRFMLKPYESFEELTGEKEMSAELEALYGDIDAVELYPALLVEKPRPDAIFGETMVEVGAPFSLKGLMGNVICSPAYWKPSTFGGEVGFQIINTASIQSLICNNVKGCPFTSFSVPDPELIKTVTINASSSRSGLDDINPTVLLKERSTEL
From the text: as §1, with “Ill., USA). […]” for “Ill., USA).”
Anti-inflammatory assay: COX activities were measured using microsomal suspensions of PGHS-1 and PGHS-2. […]
Each assay mixture contained 600 μL of 0.1 M Tris-HCl, pH 8.0, 1 mM phenol, 17 μg hemoglobin and 10 μM arachidonate and were mixed in a microchamber (INSTECH Laboratory, Plymouth Meeting, Pa., USA). […] Instantaneous inhibition was determined by measuring the cyclooxygenase activity initiated by adding microsomal suspensions of PGHS-1 or PGHS-2 in the assay mixtures containing 10 μM arachidonate and various concentrations of test compounds. […]
The COX-1/COX-2 activity of BALATON cherry bioflavonoids was determined by monitoring the O2 uptake. […]

[2] = Sanchez De Medina et al. 1996; cited from earlier work
[3] = mean of triplicate, FIGS. 10 and 11, read-out: IC50 for inhibition of PGHS-1 enzyme (COX-1)

## COc1cc(-c2oc3cc(O)cc(O)c3c(=O)c2O[C@@H]2O[C@H](CO[C@@H]3O[C@@H](C)[C@H](O)[C@@H](O)[C@H]3O)[C@@H](O)[C@H](O)[C@H]2O)ccc1O [3′-methoxy kaempferol 3-rutinoside]
PGHS-1 (COX-1)
  PGHS-1 (COX-1) inhibition: not active

## COc1c(OC)c(O)c2c(=O)cc(-c3ccc(O)cc3)oc2c1O [5,8,4′-trihydroxy-6,7-dimethoxyflavone]
PGHS-1 (COX-1)
  COX-1 inhibitory activity: little or no COX-1 inhibition
  PGHS-1 (COX-1) inhibition: not active

## C[C@H]1O[C@H](OC[C@H]2O[C@@H](Oc3c(-c4ccc(O)cc4)oc4cc(O)cc(O)c4c3=O)[C@H](O)[C@@H](O)[C@@H]2O)[C@@H](O)[C@@H](O)[C@@H]1O [Kaempferol 3-rutinoside]
PGHS-1 (COX-1)
  PGHS-1 (COX-1) inhibition: not active

## C[C@@H]1O[C@@H](OC[C@H]2O[C@@H](Oc3cc4c(O)cc(O)cc4[o+]c3-c3ccc(O)c(O)c3)[C@H](O[C@@H]3O[C@H](CO)[C@@H](O)[C@H](O)[C@H]3O)[C@@H](O)[C@@H]2O)[C@H](O)[C@H](O)[C@H]1O [anthocyanin 1]
PGHS-1 enzyme; higher concentrations than 300-nM, enzyme (PGHS-1/PGHS-2) not specified
  effect on activity of enzyme at higher concentrations: increased the activity of enzyme

## COc1ccc(-c2coc3cc(O)cc(O)c3c2=O)cc1 [biochanin A]
PGHS-1 (COX-1); [3]
  IC50: 350 µM

## OC[C@H]1O[C@@H](Oc2cc3c(O)cc(O)cc3[o+]c2-c2ccc(O)c(O)c2)[C@H](O)[C@@H](O)[C@@H]1O [cyanidin-3-glucoside]
[1]
  antioxidant activities: strong antioxidant activities

## Oc1cc(O)c2cc(O)c(-c3ccc(O)c(O)c3)[o+]c2c1 [cyanidin]
PGHS-1 enzyme; inhibition of cyclooxygenase activity, FIG. 7
  IC50: 90 µM

## O=c1c(-c2ccc(O)cc2)coc2cc(O)ccc12 [daidzein]
PGHS-1 (COX-1)
  IC50: 400 µM

## O=c1c(O)c(-c2ccccc2)oc2cc(O)cc(O)c12 [galangin]
cyclooxygenase; Wurm et al. 1982, read-out: IC50 cyclooxygenase inhibition
  IC50: 5.5 µM

## O=c1c(-c2ccc(O)cc2)coc2cc(O)cc(O)c12 [genistein]
PGHS-1 (COX-1)
  IC50: 80 µM
  COX-1 inhibitory activity among isoflavonoids: highest COX-1/COX-2 inhibitory activity
COX-2 (PGHS-2)
  COX-2 inhibitory activity among isoflavonoids: highest COX-1/COX-2 inhibitory activity

## O=c1c(-c2ccc(O)cc2)coc2cc(O[C@@H]3O[C@H](CO)[C@@H](O)[C@H](O)[C@H]3O)cc(O)c12 [genistin]
PGHS-1 (COX-1)
  COX-1 inhibitory activity among isoflavonoids: dramatically decreased
COX-2 (PGHS-2)
  COX-2 inhibitory activity among isoflavonoids: dramatically decreased

## O=c1c(O)c(-c2ccc(O)cc2)oc2cc(O)cc(O)c12 [kaempferol]
PGHS-1 (COX-1)
  COX-1 inhibitory activity: highest COX-1 inhibition
PGHS-1 (COX-1); [3]
  IC50: 180 µM

## O=c1cc(-c2ccc(O)c(O)c2)oc2cc(O)cc(O)c12 [luteolin]
PGHS-1 (COX-1); [3]
  IC50: 300 µM

## CC(C)=CCc1c(-c2ccc(O)cc2O)oc2c3c(cc(O)c2c1=O)OC(C)(C)C=C3 [morusin]
cyclooxygenase
  COX inhibition: active

## O=C1C[C@@H](c2ccc(O)cc2)Oc2cc(O)cc(O)c21 [naringenin]
PGHS-1 (COX-1)
  COX-1 inhibitory activity: dramatically decreased

## C[C@@H]1O[C@@H](Oc2c(-c3ccc(O)c(O)c3)oc3cc(O)cc(O)c3c2=O)[C@H](O)[C@H](O)[C@H]1O [quercetin 3-rhamnoside]
PGHS-1 (COX-1)
  COX-1 inhibitory activity: not active
[2]
  in vivo anti-inflammatory activity: reported to have in vivo anti-inflammatory activity

## O=c1c(O)c(-c2ccc(O)c(O)c2)oc2cc(O)cc(O)c12 [quercetin]
PGHS-1 (COX-1)
  PGHS-1 (COX-1) inhibition: not active
PGHS-1 (COX-1); [3]
  IC50: 350 µM

## O=c1cc(-c2ccccc2)oc2ccccc12 [unsubstituted flavone, flavone]
cyclooxygenase
  COX inhibition: good COX inhibitor
